Data from patent publication US11325899B2, “Benzofurane and benzothiophene derivatives as PGE2 receptor modulators” (IDORSIA PHARMACEUTICALS LTD, priority 2017, dated 2022).

What was measured:
Assay type in all cases: cell-based
PTGER4 (EP4) = biological target: T1, PTGER4 (EP4) (Homo sapiens, UniProt P35408); experiment: hEP4 b-arrestin assay (PathHunter HEK 293 PTGER4 b-arrestin cells); conditions: antagonistic activity, beta-arrestin assay; read-out: hEP4 b-arr IC50
T1 construct: host or cells: HEK 293 (PathHunter PTGER4 b-arrestin cell line)
Summary of the method: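 PathHunter HEK 293 cells expressing ProLink-tagged human EP4 and EA-β-arrestin 2, seeded 24 h before. Compounds (10 μM–2 nM or 1 μM–0.2 nM) preincubated 15 min at 37 °C, then 20 nM PGE2 (EC80) for 120 min at 37 °C. β-gal complementation luminescence read; IC50 from duplicate dose-response curves versus DMSO control.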

EP4 receptor = biological target: T2, EP4 receptor (Homo sapiens, UniProt P35408); experiment: hEP4 cAMP assay (BT549 breast cancer cells, HTRF cAMP, PGE2 stimulation); conditions: antagonistic activity, PGE2 6 nM (EC80)
T2 construct: BT549 breast cancer cells, express high endogenous EP4 levels and very low EP2 levels; host or cells: BT549 breast cancer cells
Summary of the method: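 BT549 cells, with endogenous EP4 and very low EP2, were preincubated 45 min at room temperature with compound in HBSS/HEPES/BSA buffer with 2 mM IBMX. They were then stimulated 30 min with 6 nM PGE2 (EC80). cAMP was measured by HTRF competitive immunoassay against a calibrator; IC50 from duplicate dose-response as % of DMSO control.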

PTGER2 (EP2) = biological target: T3, PTGER2 (EP2) (Homo sapiens, UniProt P43116); experiment: hEP2 b-arrestin assay (PathHunter HEK 293 PTGER2 b-arrestin cells); conditions: antagonistic activity, beta-arrestin assay; read-out: hEP2 b-arr IC50
T3 construct: host or cells: HEK 293 (PathHunter PTGER2 b-arrestin cell line)
Summary of the method: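 PathHunter HEK293 cells with ProLink-tagged EP2 and EA-β-arrestin 2 preincubated 15 min at 37 °C with compound (10 μM-2 nM or 1 μM-0.2 nM), then stimulated 120 min with 5 μM PGE2 (EC80). β-gal complementation read by chemiluminescence; IC50 from duplicate dose-response versus DMSO.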

T2 sequence (P35408 whole entry): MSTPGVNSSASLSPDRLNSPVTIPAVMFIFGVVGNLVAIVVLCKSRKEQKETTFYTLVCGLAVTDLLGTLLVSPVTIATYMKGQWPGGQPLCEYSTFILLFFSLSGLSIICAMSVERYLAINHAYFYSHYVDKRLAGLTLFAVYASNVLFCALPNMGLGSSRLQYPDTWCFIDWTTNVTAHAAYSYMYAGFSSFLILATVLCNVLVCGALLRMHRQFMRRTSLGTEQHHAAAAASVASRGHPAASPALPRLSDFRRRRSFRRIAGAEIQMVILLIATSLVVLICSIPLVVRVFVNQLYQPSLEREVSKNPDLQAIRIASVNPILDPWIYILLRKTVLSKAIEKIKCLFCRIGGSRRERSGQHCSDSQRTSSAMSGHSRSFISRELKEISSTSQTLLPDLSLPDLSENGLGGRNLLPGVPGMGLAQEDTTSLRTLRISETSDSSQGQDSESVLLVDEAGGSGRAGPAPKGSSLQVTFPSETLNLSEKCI
T1 sequence (P35408 whole entry): as above
T3 sequence (P43116 whole entry): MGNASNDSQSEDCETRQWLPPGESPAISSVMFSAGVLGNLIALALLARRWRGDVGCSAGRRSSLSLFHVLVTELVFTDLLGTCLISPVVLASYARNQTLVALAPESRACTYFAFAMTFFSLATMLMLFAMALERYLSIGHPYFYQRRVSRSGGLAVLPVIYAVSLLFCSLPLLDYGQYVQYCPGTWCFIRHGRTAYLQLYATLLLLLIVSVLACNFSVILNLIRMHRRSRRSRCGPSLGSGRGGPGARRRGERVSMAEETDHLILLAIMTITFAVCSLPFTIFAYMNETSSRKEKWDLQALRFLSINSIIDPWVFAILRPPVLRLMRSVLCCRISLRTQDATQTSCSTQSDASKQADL

Row | IC50 (PTGER4 (EP4)) | IC50 (EP4 receptor) | IC50 (PTGER2 (EP2)) | SMILES
1 | 0.374 µM | 0.258 µM | 0.068 µM | COc1cc(F)c(F)c2c(CCNc3cc(-c4ccc(C(=O)O)c(OC5CC5)c4)ncn3)c(C)oc12 [Example 85, 2-Cyclopropoxy-4-{6-[2-(4,5-difluoro-7-methoxy-2-methyl-benzofuran-3-yl)-ethylamino]-pyrimidin-4-yl}-benzoic acid]
2 | 0.283 µM | 0.564 µM | 0.004 µM | CSc1cc(-c2cc(NCCc3c(C)sc4c(C)c(F)ccc34)ncn2)ccc1C(=O)O [Example 21, 4-{6-[2-(6-Fluoro-2,7-dimethyl-benzo[b]thiophen-3-yl)-ethylamino]-pyrimidin-4-yl}-2-methylsulfanyl-benzoic acid]
